Source: PubChem BioAssay (NCI)
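All cell lines were grown in 96-well plates and treated with compound for 48 hours. Abbreviation: GI50, concentration required for 50% inhibition of growth. At the TGI there is no net growth.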 Where a SMILES comes first, the peptide text is derived from it. Bridges are numbered along the chain shown (N, C = ends). [ ]: non-standard residue; d: D form. The star is where a group is joined. ξ: configuration not given here. X26 = O=C(/C=C/C=C/C=C/C=C/C=C/C(=O)*)NC1=C(O)CCC1=O; NMeA = CN[C@@H](C)C(=O)O; ξF = NC(Cc1ccccc1)C(=O)O; ξA = CC(N)C(=O)O

Columns and labels:
Experiment in all cases: NCI anticancer screen, dose series, 48 h
SK-OV-3 ovarian = system: SK-OV-3 ovarian
NCI-H460 lung = system: NCI-H460 lung
U251 CNS = system: U251 CNS
HCT-15 colon = system: HCT-15 colon
M14 melanoma = system: M14 melanoma
CAKI-1 renal = system: CAKI-1 renal
RPMI-8226 leukemia = system: RPMI-8226 leukemia
HS 578T breast = system: HS 578T breast

Structure (SMILES)	TGI (SK-OV-3 ovarian) [µM]	TGI (NCI-H460 lung) [µM]	TGI (U251 CNS) [µM]	TGI (HCT-15 colon) [µM]	TGI (M14 melanoma) [µM]	TGI (CAKI-1 renal) [µM]	TGI (RPMI-8226 leukemia) [µM]	TGI (HS 578T breast) [µM]	GI50 (NCI-H460 lung) [µM]	GI50 (SK-OV-3 ovarian) [µM]	GI50 (CAKI-1 renal) [µM]	GI50 (HS 578T breast) [µM]	GI50 (RPMI-8226 leukemia) [µM]
O=C1NCC(NC(=O)C(F)(F)F)c2c(Br)sc(Br)c21 (stereo not drawn)	> 100	> 100	> 100	> 100	> 100	> 100	> 100	–	–	–	–	–	–
O=C(Nc1ccccc1F)c1cc2ccc(O)cc2oc1=Nc1ccccc1F	42.1	6.18	3.63	6.28	5.57	4.46	7.84	5.03	–	–	–	–	–
Nc1nc(Cl)cc(NCC2(CO)CCC(CCc3ccccc3)C2)n1 (stereo not drawn)	35.1	27.3	31.1	34	27.8	30.2	–	52.7	–	–	–	–	–
CCCCNC(=S)N/N=C/c1cccc(C)n1	> 100	> 100	> 100	> 100	48.6	87.8	> 100	> 100	–	–	–	–	–
c1ccc2c(c1)c1c(n2CCOCCN2CCOCC2)CCCC1	> 100	> 100	64.6	> 100	30.9	> 100	53.9	> 100	–	–	–	–	–
CC1CN=C(N(C(=O)Nc2ccc(F)c(Cl)c2)c2ccccc2)S1 (stereo not drawn)	98.7	84.1	50.5	75.3	75.5	67	> 100	> 100	–	–	–	–	–
CNc1ncnc2c1cnn2COCC(O)CO (stereo not drawn)	> 100	> 100	> 100	> 100	> 100	> 100	> 100	> 100	–	–	–	–	–
N#CC(N=Nc1ccc(Cl)cc1)c1nc2ccccc2o1 (stereo not drawn)	> 100	> 100	> 100	> 100	> 100	> 100	> 100	> 100	–	–	–	–	–
CC(C)=CCC/C(C)=C/COC(C)(C)C1=CCC(C)CC1 (stereo not drawn) (tested in a mixture with another compound)	> 100	> 100	> 100	> 100	> 100	> 100	> 100	> 100	–	–	–	–	–
NNC1=N/C(=C\c2ccco2)C(Cl)=N1	> 100	–	> 100	> 100	> 100	> 100	41.8	> 100	–	–	–	–	–
O=c1ccn(C2OC(CO)C(P(=O)(O)O)C2O)c(=O)[nH]1 (stereo not drawn)	–	> 100	> 100	> 100	> 100	> 100	> 100	> 100	–	–	–	–	–
CC(C)(C)OC(=O)NCCC(N)=S	> 100	> 100	> 100	> 100	> 100	–	> 100	> 100	–	–	–	–	–
Cc1ccc(CC[P+](=O)CCc2ccc(C)nc2)cn1	> 100	> 100	> 100	> 100	> 100	> 100	> 100	> 100	–	–	–	–	–
CCOC(=O)C1(C(=O)OCC)COS(=O)OC1	> 100	> 100	> 100	54.6	> 100	–	–	> 100	–	–	–	–	–
Nc1ccc(-c2nc3ccccc3s2)cc1C(F)(F)F	30.4	28.5	28.7	27.6	28.7	28.7	44.6	43.5	14.6	–	–	–	–
O=C(Oc1cc(=O)c(OC(=O)c2ccccc2)co1)c1ccccc1	> 100	> 100	> 100	> 100	> 100	> 100	> 100	> 100	–	–	–	–	–
CCOC(=O)c1nc2ccc(C(F)(F)F)cc2nc1Oc1ccc(C#N)cc1	46	> 100	61.1	> 100	42.9	59.1	> 100	36.5	–	–	–	–	–
CC1NC(=O)[C@H](C)N(C)C(=O)[C@@H]2CCCN2C(=O)[C@@H](NC(=O)C(Cc2ccccc2)NC(=O)/C=C/C=C/C=C/C=C/C=C/C(=O)NC2=C(O)CCC2=O)COC(=O)[C@@H]2CCCN2C1=O (stereo partly drawn) (X26-[ξF]SP[NMeA][ξA]P; ester 2-C)	> 100	> 100	> 100	> 100	> 100	> 100	> 100	> 100	–	–	–	–	–
O=[N+]([O-])c1ccc(/C=C/c2cc(-c3ccccc3)nc3ccc4ccccc4c23)cc1	> 100	> 100	> 100	> 100	> 100	> 100	> 100	> 100	–	–	–	–	–
C/C1=C\CC[C@@]2(C)O[C@@H]2C[C@@H](C2(C)CO2)CC/C(C)=C/CC1 (stereo partly drawn)	> 100	37.8	29.6	25	54.7	39.9	> 100	46.3	–	–	–	–	–

Structure (SMILES)	TGI (SK-OV-3 ovarian) [µM]	TGI (NCI-H460 lung) [µM]	TGI (U251 CNS) [µM]	TGI (HCT-15 colon) [µM]	TGI (M14 melanoma) [µM]	TGI (CAKI-1 renal) [µM]	TGI (RPMI-8226 leukemia) [µM]	TGI (HS 578T breast) [µM]	GI50 (NCI-H460 lung) [µM]	GI50 (SK-OV-3 ovarian) [µM]	GI50 (CAKI-1 renal) [µM]	GI50 (HS 578T breast) [µM]	GI50 (RPMI-8226 leukemia) [µM]
Cc1c(N2C(=O)C(Cl)C2c2ccc(Cl)cc2)c(=O)n(-c2ccccc2)n1C (stereo not drawn)	> 100	> 100	> 100	–	> 100	> 100	42.6	–	–	–	–	–	–
COC(=O)c1cc2c(cc1CC1Cc3cc4c(cc3C1)CCC4)CCC2	> 100	> 100	> 100	> 100	> 100	> 100	61.4	> 100	–	–	–	–	–
C[C@]12CC[C@@H]3c4ccc(O)cc4CC[C@H]3[C@@H]1C/C(=C\c1ccncc1)[C@@H]2O	> 100	68.2	39.6	33.3	> 100	75.2	24.6	20.9	–	–	–	–	–
N=C(N)c1ccc(-c2ccc(-c3cccs3)s2)cc1	9.64	–	–	–	–	4.23	2.12	9.62	–	4.15	1.89	2.99	0.267
Cc1ccc(OCCn2cc(Nc3ccccc3)c(=O)n(CCOc3ccc(C)cc3)c2=O)cc1	–	> 100	> 100	> 100	> 100	> 100	> 100	> 100	–	–	–	–	–
Oc1[nH]c2ccc(Br)cc2c1N=NC(=S)Nc1ccc(F)cc1	33.4	15.3	18.5	11.8	–	19.3	–	63.6	–	–	–	–	–
C(/C=C(\Nc1ccccc1)C12CC3CC(CC(C3)C1)C2)=Nc1ccccc1	46.5	62.6	31.7	28	32.6	29.5	–	> 100	–	–	–	–	–
COc1ccc(-c2c3c([nH]c(=S)c2C#N)CC(C)(C)CC3=O)cc1	–	> 100	> 100	> 100	> 100	> 100	> 100	> 100	–	–	–	–	–
CC1=C2C(=C[C@H]3[C@]4(C)CCCC(C)(C)[C@H]4CC[C@]34O[C@H]24)OC1=O	> 100	> 100	> 100	> 100	> 100	–	> 100	–	–	–	–	–	–
CC1(C)C2CC(=O)C1(C)C(O)C2Br (stereo not drawn)	> 100	> 100	> 100	> 100	> 100	–	–	> 100	–	–	–	–	–
CC[n+]1[b-](C(C)(C)C)n(/N=C/C(C)(C)C)[b-](C(C)(C)C)[n+]1CC	–	> 100	> 100	> 100	> 100	> 100	–	> 100	–	–	–	–	–
CCOC(=O)c1c(-c2ccccc2)c(-c2ccccc2)cn1C	> 10	> 10	> 10	> 10	> 10	–	–	> 10	–	–	–	–	–
S=C(/N=c1\sc(Nc2ccc(Cl)cc2)nc2sc3c(c12)CCN(N1CCc2c(sc4nc(Nc5ccc(Cl)cc5)s/c(=N\C(=S)Nc5ccc(Cl)cc5)c24)C1)C3)Nc1ccc(Cl)cc1	66.4	> 100	61.9	> 100	> 100	–	–	> 100	–	–	–	–	–
C(=Nc1ccc(-c2nc3ccccc3o2)cc1)c1ccco1	–	–	–	> 100	> 100	> 100	36.9	–	–	–	–	–	–
N/C(=N\S(=O)(=O)c1c(C(F)(F)F)cccc1C(F)(F)F)Nc1ccc(Cl)cc1	> 100	> 100	36	> 100	> 100	–	> 100	68.6	–	–	–	–	–
CC(=O)c1cccn1/C=C(\OC(=O)OC(C)(C)C)c1ccc[nH]1	–	> 100	> 100	> 100	> 100	91.2	> 100	> 100	–	–	–	–	–
Cc1ccc([N+](=O)[O-])cc1N=NC(=O)NNc1cc([N+](=O)[O-])ccc1C	36	–	97.6	74.3	53.5	66.8	> 100	55.6	–	–	–	–	–
O=C(NCCCN(CCCCN(CCCNC(=O)C(F)(F)F)Cc1ccc2ccccc2c1)Cc1ccc2ccccc2c1)C(F)(F)F	> 100	23.7	> 100	> 100	4.54	–	7.15	–	–	–	–	–	–
CC(=O)Oc1cc(C(F)(F)F)ccc1C(=O)OC1(C)OC(=O)c2ccc(C(F)(F)F)cc2O1 (stereo not drawn)	> 100	> 100	> 100	> 100	> 100	> 100	–	–	–	–	–	–	–
